Results on nine compounds are retold here after PubChem BioAssay (NCI).

Where “and” joins values, the source holds several entries; their conditions need not be identical. Identical values can stand only once.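 Assay format: 96-well plates, 48-hour exposure. GI50: concentration for 50% inhibition of growth. Definition used: TGI = concentration required for complete inhibition of growth.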

What all share (test): NCI anticancer screen, dose series, 48 h
In experiment [1] the test system is OVCAR-4 ovarian.
For experiment [2], the system named is SK-MEL-28 melanoma.
Experiment [3] concerns SN12C renal.
Experiment [4] has as its system COLO 205 colon.
For experiment [5], the system named is HCC-2998 colon.
Experiment [6] has as its system MCF7 breast.
The subject of experiment [7] is KM12 colon.
Experiment [8] concerns HL-60(TB) leukemia.
In experiment [9] the test system is PC-3 prostate.
Experiment [10] has as its system EKVX NSCLC.

In the case of `CC(=C/c1ccccc1)/C=C1/NC(=S)N(/C=C2\C(=O)Oc3ccccc3C2=O)C1=O`, the TGI in [1], in experiment [2], in experiment [3], in experiment [4], in experiment [5] and in experiment [6] was over 100 µM in each case. Further, the TGI in [7], in experiment [8], in experiment [9] and in experiment [10] was over 100 µM each time.
`O=c1oc2c(C(F)(F)F)cccc2cc1-c1csc(Nc2ccc(OCCF)cc2)n1`: the GI50 in [1] is 0.077 µM; in experiment [2] it was 1.32 µM; in experiment [3] it was 0.271 µM; in [4], 0.0268 µM; in experiment [5], 0.0423 µM; in [6] it was 0.0427 µM. Further, the GI50 is 0.0375 µM in experiment [7], 0.0248 µM in [8], 0.0446 µM in [9] and 0.0556 µM in [10]. Further, the TGI in experiment [1] is over 66.7 µM; in experiment [2], over 66.4 µM; in experiment [3] it was over 64.4 µM; in [4], 0.0729 µM; in experiment [5], over 100 µM; in experiment [6], over 37.6 µM. For the same compound, the TGI was 17.5 µM in experiment [7], 0.0573 µM in experiment [8], over 100 µM in experiment [9] and over 100 µM in [10].
On to `O=C(NC(=O)c1ccccc1[N+](=O)[O-])Nc1ccc(Oc2ncc(Cl)cn2)c(C(F)(F)F)c1`, for which the TGI in experiment [1] is 98.4 µM; in experiment [2], over 4.64 µM; in [3], 62.9 µM; in [4], 0.109 µM; in [5] it was 0.0775 µM; in experiment [6], over 52.2 µM. Moreover, the TGI was 3.63 µM in experiment [7], 0.125 µM in experiment [8], 0.0658 µM in [9] and over 100 µM in experiment [10].
Take `CCN(c1cc(C#CCN2CCOCC2)cc(C(=O)NCc2c(C)cc(C)[nH]c2=O)c1C)C1CCC(N(C)CCOC)CC1` (stereo not drawn): the GI50 in experiment [1], in experiment [2], in experiment [3], in experiment [4], in experiment [5] and in experiment [6] was over 100 µM each time. Besides, the GI50 in experiment [7], in experiment [8], in experiment [9] and in experiment [10] was over 100 µM each time. The TGI in experiment [1], in experiment [2], in [3], in experiment [4], in experiment [5] and in experiment [6] was over 100 µM throughout. The TGI in experiment [7], in [8], in experiment [9] and in experiment [10] was over 100 µM in each case.
Regarding `CC(=O)c1nc2ccccc2n1CC(=O)c1cccc(Cl)c1`, the GI50 was 0.752 µM in experiment [1]; 0.437 µM in [2]; 0.838 µM in experiment [3]; 16.1 µM in experiment [4]; 1.5 µM in experiment [5]; 0.335 µM in [6]. The GI50 in [7] was 0.779 µM; in [8] it was 0.144 µM; in experiment [9], 1.12 µM; in experiment [10] it was 4.33 µM. Moreover, the TGI was over 100 µM in experiment [1]; over 54.3 µM in experiment [2]; over 100 µM in experiment [3]; over 79.1 µM in [4]; over 100 µM in [6]; over 43.4 µM in experiment [7]. For the same compound, the TGI is 0.61 µM in [8], over 100 µM in [9] and over 100 µM in [10].
For `Cc1c([N+](=O)[O-])oc2ccc3ccccc3c12`, the TGI is over 100 µM in [1]; over 100 µM in experiment [2]; over 100 µM in experiment [3]; over 100 µM in [4]; over 100 µM in experiment [5]; 93.7 µM in experiment [6]. For the same compound, the TGI in [7], in experiment [8], in experiment [9] and in experiment [10] was over 100 µM throughout.
On to `O=C(NC(=S)Nc1cc(Cl)ccc1O)c1cccc(Br)c1`, for which the GI50 in experiment [1] is 4.7 µM; in [2], 16.5 µM; in experiment [3], 12.5 µM; in [4] it was 34.1 µM; in [5] it was 13.6 µM; in experiment [6] it was 2.11 µM. The GI50 in experiment [7] was 5.78 µM; in experiment [8], 7.12 µM; in experiment [9] it was 6.78 µM; in experiment [10] it was 17.1 µM. For the same compound, the TGI in experiment [1], in experiment [2], in [3], in [4], in experiment [5] and in experiment [6] was over 100 µM throughout. Besides, the TGI in experiment [7], in experiment [8], in experiment [9] and in experiment [10] was over 100 µM throughout.
On to `CNCCN=c1ccc2c3c1c(O)c1c(O)ccc(=O)c1c3[nH]n2CCNCCO`, for which the GI50 was 0.861 µM and 0.923 µM in experiment [1]; 1.5 µM in experiment [2]; 0.0859 µM in [3]; 0.398 µM and 0.56 µM in experiment [4]; 0.0568 µM and 0.05 µM in [6]; 0.918 µM in experiment [7]. For the same compound, the GI50 in experiment [8] is 0.0496 µM and 0.314 µM; in experiment [9], 0.41 µM; in [10], 1.84 µM and 0.889 µM. Also, the TGI was 3.26 µM and 5.54 µM in experiment [1]; 6.87 µM in experiment [2]; 2.41 µM and 2.39 µM in [3]; 4.41 µM and 4.59 µM in experiment [4]; 1.61 µM and 8.62 µM in experiment [5]; 7.51 µM and 5.2 µM in experiment [6]. In addition, the TGI in experiment [7] was 4.23 µM and 15.1 µM; in [8], 0.663 µM and 1.22 µM; in [9], 6.66 µM and 4.9 µM; in [10], 10.5 µM and 3.5 µM.
As to `O=C(O)C(Oc1nc(=S)[nH]c(=S)[nH]1)(c1ccc(Cl)cc1)c1ccc(Cl)cc1`, the TGI in experiment [1], in experiment [2], in [3], in experiment [4], in experiment [5] and in experiment [6] was over 100 µM in each case. Besides, the TGI in experiment [7], in experiment [8], in experiment [9] and in experiment [10] was over 100 µM throughout.
